Assay results reported in ChEMBL document CHEMBL5226337, “Pyrazolopyrimidines as anticancer agents: A review on structural and target-based approaches” (Eur J Med Chem, 2021).
Values after ≈ are worked out from the molar mass of the structure shown.

What was measured:
Maver1 = experiment: cells; conditions: Homo sapiens, Maver1, 72 h
Description: Anticancer activity against human MAVER-1 cells assessed as inhibition of cell proliferation measured after 72 hrs by Cell Titer-Glo Luminescent

HCT-116 [1] = experiment: Anticancer activity against human HCT-116 cells assessed as inhibition of cell proliferation measured after 48 hrs by MTT assay; assay type: functional, cell-based; conditions: HCT-116, 48 h
HeLa [2] = experiment: Anticancer activity against human HeLa cells assessed as inhibition of cell proliferation measured after 24 hrs by MTT assay; assay type: functional, cell-based
MCF7 [3] = experiment: Anticancer activity against human MCF7 cells assessed as inhibition of cell proliferation measured after 24 hrs by MTT assay; assay type: functional, cell-based; conditions: MCF7, 24 h
KB = experiment: Anticancer activity against human KB cells assessed as inhibition of cell proliferation measured after 16 hrs by MTT assay; assay type: functional, cell-based
HT-29 = experiment: Anticancer activity against human HT-29 cells assessed as inhibition of cell proliferation measured after 16 hrs by MTT assay; assay type: functional, cell-based; conditions: HT-29, 16 h
HepG2 [4] = experiment: Anticancer activity against human HepG2 cells assessed as inhibition of cell proliferation measured after 16 hrs by MTT assay; assay type: functional, cell-based; conditions: HepG2, 16 h
HepG2 [5] = experiment: Anticancer activity against human HepG2 cells assessed as inhibition of cell proliferation by MTT assay; assay type: functional, cell-based
[6] = Selectivity index, ratio of IC50 for cytotoxicity against FHC cells to IC50 for antiproliferative activity against KM12 cells; assay type: toxicity, cell-based; conditions: human; read-out: Ratio IC50
KM12 = experiment: Anticancer activity against human KM12 cells assessed as inhibition of cell proliferation measured after 72 hrs by MTT assay; assay type: functional, cell-based; conditions: KM12, 72 h
[7] = molecular target: Tyrosine-protein kinase BTK (Homo sapiens, UniProt Q06187); experiment: Inhibition of human BTK using biotin as a substrate preincubated for 5 mins followed by substrate addition incubated for 30 mins in presence of ATP by fluorescence based assay
Sequence of Tyrosine-protein kinase BTK (Q06187 whole entry): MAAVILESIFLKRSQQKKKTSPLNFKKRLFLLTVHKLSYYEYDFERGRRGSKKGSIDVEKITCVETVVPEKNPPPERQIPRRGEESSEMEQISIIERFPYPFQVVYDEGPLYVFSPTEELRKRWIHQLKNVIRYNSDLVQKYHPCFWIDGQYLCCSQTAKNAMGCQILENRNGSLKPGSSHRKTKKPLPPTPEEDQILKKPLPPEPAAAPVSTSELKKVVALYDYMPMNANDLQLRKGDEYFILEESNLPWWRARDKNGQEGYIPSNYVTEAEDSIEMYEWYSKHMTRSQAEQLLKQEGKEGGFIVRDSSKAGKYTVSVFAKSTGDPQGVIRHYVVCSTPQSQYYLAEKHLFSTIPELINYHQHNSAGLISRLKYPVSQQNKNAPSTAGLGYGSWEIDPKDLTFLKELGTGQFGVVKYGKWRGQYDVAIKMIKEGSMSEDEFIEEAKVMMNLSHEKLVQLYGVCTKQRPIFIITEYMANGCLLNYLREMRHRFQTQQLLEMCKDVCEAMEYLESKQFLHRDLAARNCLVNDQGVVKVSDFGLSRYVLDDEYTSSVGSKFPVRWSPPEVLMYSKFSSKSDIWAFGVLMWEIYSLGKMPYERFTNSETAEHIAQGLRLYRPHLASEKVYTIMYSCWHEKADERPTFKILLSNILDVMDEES

Ramos = experiment: Anticancer activity against human Ramos cells assessed as inhibition of cell proliferation preincubated for 1 hr followed by compound addition measured after 1 hrs by Cell Titer-Glo assay; assay type: functional, cell-based
Raji = experiment: Anticancer activity against human Raji cells assessed as inhibition of cell proliferation preincubated for 1 hr followed by compound addition measured after 1 hrs by Cell Titer-Glo assay; assay type: functional, cell-based
[8] = test system: Panel NCI-60 (60 carcinoma cell lines); experiment: Anticancer activity against human Panel NCI-60 (60 carcinoma cell lines) assessed as inhibition of cell proliferation; assay type: functional
MCF7 [9] = experiment: Anticancer activity against human MCF7 cells assessed as inhibition of cell proliferation measured after 18 hrs by spectrophotometric analysis relative to control; assay type: functional
HCT-116 [10] = experiment: Anticancer activity against human HCT-116 cells assessed as inhibition of cell proliferation measured after 18 hrs by spectrophotometric analysis relative to control; assay type: functional
[11] = molecular target: Tyrosine-protein kinase JAK2 (Homo sapiens, UniProt O60674); experiment: Inhibition of human JAK2 using biotin as a substrate preincubated for 5 mins followed by substrate addition incubated for 30 mins in presence of ATP by fluorescence based assay
Sequence of Tyrosine-protein kinase JAK2 (O60674 whole entry): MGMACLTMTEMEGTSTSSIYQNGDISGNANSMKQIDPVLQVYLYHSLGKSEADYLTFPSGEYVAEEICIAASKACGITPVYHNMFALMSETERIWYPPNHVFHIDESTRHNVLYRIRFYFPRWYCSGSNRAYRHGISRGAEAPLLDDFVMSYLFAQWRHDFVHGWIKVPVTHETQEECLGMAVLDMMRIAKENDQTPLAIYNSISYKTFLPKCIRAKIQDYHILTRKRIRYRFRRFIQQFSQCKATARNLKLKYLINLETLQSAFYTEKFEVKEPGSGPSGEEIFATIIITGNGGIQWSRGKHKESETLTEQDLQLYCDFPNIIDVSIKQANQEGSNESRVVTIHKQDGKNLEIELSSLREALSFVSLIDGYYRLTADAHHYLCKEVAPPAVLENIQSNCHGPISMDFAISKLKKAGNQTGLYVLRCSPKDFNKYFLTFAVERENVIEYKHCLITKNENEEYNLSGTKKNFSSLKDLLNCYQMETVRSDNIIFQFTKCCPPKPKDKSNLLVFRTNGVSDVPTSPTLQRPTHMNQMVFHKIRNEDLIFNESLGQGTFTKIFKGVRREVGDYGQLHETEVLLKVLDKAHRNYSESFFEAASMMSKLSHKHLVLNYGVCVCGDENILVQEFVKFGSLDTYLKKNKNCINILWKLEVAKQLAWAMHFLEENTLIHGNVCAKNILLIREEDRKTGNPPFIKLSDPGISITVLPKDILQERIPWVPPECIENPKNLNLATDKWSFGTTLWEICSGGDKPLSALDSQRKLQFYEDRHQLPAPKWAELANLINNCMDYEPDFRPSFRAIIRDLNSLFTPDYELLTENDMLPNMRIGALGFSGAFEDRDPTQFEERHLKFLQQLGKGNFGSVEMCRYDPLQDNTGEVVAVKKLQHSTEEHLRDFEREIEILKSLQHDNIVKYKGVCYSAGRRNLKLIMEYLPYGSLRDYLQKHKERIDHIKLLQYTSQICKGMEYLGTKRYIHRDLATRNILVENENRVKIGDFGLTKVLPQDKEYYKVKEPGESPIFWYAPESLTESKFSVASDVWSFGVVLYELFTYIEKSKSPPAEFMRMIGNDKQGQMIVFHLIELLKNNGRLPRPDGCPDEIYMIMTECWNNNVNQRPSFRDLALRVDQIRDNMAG

MCF7 [12] = experiment: Anticancer activity against human MCF7 cells assessed as inhibition of cell proliferation measured after 24 hrs by MTT based microplate ELISA reader analysis; assay type: functional; conditions: MCF7, 24 h
[13] = Inhibition of KDM (unknown origin) incubated for 30 mins in presence of ATP by ELISA assay; parameters: species or system Homo sapiens
JeKo-1 = experiment: Anticancer activity against human JeKo-1 cells assessed as inhibition of cell proliferation measured after 72 hrs by Cell Titer-Glo Luminescent; assay type: functional, cell-based; conditions: JeKo-1, 72 h
[14] = Anticancer activity against human MINO cells assessed as inhibition of cell proliferation measured after 72 hrs by Cell Titer-Glo Luminescent; assay type: functional, cell-based
Z-138 = experiment: Anticancer activity against human Z138 cells assessed as inhibition of cell proliferation measured after 72 hrs by Cell Titer-Glo Luminescent; assay type: functional, cell-based; conditions: Z-138, 72 h
MCF7 [15] = experiment: Anticancer activity against human MCF7 cells assessed as inhibition of cell proliferation measured after 48 hrs by MTT assay; assay type: functional, cell-based; conditions: MCF7, 48 h
HepG2 [16] = experiment: Anticancer activity against human HepG2 cells assessed as inhibition of cell proliferation measured after 72 hrs by SRB calorimetric assay; assay type: functional, cell-based; conditions: HepG2, 72 h
MCF7 [17] = experiment: Cell cycle arrest in human MCF7 cells assessed as accumulation at G2/M phase measured after 48 hrs by […] propidium iodide staining based flow cytometry analysis; assay type: functional; conditions: MCF7, 48 h
[18] = molecular target: cGMP-specific 3',5'-cyclic phosphodiesterase (Homo sapiens, UniProt O76074); experiment: Inhibition of PDE5 (unknown origin)
[19] = molecular target: Epidermal growth factor receptor (Homo sapiens, UniProt P00533); experiment: Inhibition of EGFR (unknown origin) by EGFR Kinase Assay Kit method
Sequence of Epidermal growth factor receptor (P00533 whole entry): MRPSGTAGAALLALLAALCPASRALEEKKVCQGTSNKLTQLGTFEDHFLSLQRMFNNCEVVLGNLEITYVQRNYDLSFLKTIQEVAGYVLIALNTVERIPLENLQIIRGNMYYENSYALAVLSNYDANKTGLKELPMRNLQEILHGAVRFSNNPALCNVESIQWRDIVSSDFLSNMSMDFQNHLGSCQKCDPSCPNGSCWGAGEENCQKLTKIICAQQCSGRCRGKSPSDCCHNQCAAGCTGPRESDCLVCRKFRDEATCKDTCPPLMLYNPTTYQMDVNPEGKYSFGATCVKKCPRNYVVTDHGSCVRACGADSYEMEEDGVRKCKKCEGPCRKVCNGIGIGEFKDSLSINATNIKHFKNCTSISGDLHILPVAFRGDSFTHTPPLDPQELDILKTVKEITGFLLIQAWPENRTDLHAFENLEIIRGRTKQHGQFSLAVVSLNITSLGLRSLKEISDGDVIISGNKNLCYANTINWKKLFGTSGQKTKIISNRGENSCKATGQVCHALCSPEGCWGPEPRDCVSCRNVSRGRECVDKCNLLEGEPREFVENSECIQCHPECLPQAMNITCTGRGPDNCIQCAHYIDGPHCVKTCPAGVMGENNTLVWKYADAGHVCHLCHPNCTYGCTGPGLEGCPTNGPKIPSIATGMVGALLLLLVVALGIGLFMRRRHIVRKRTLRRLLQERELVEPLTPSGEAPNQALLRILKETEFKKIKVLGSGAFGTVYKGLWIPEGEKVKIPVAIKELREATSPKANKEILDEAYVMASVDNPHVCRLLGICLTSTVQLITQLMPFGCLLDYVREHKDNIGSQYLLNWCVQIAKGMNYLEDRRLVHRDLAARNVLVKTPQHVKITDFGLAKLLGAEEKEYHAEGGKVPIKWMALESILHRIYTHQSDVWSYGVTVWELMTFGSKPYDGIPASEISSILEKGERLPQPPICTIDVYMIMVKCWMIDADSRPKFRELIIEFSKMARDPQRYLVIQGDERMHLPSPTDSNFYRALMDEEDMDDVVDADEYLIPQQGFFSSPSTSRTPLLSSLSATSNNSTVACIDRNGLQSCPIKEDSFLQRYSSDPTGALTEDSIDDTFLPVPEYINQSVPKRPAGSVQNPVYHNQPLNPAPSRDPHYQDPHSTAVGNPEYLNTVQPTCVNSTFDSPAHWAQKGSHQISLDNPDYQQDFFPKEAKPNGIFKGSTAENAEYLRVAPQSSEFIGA

HeLa [20] = experiment: Anticancer activity against human HeLa cells assessed as inhibition of cell proliferation measured after 24 hrs by MTT based microplate ELISA reader analysis; assay type: functional
A549 = experiment: Anticancer activity against human A549 cells assessed as inhibition of cell proliferation measured after 48 hrs by MTT assay based microtiter plate analysis; assay type: functional; conditions: A549, 48 h

Nc1ncnc2c1c(-c1ccc(Oc3ccccc3)nc1)nn2C1CCCN(C(=O)CCl)C1 (centres undefined)
IC50 (Maver1): < 1 µM

CCNc1nn2c(-c3ccccc3)cc(=O)[nH]c2c1C(=O)Nc1ccc([N+](=O)[O-])cc1
IC50 (HCT-116 [1]): 1.51 µM

Nc1nc(Cl)c2cnn(Cc3ccc(Br)cc3F)c2n1
IC50 (HeLa [2]): 22.4 µM | IC50 (MCF7 [3]): 13.9 µM

CCOC(=O)C1=C(C)n2nc(CC#N)c(C#N)c2NC1c1ccccc1 (centres undefined)
IC50 (KB): 7.58 µM | IC50 (HT-29): 8.12 µM | IC50 (HepG2 [4]): 4.41 µM

CCOC(=O)C1=C(C)n2nc(CC#N)c(C#N)c2NC1c1ccc(N(C)C)cc1 (centres undefined)
IC50 (KB): 8.31 µM | IC50 (HT-29): 9.23 µM | IC50 (HepG2 [4]): 9.41 µM

CSc1c(C#N)c(N)nc2c(/N=N/N3C(=O)c4ccccc4C3=O)c(O)nn12
IC50 (HeLa [2]): 5.57 µM | IC50 (HepG2 [5]): 5.6 µg/mL (≈ 14.2 µM) | IC50 (MCF7 [3]): 4.17 µM

CCOC(=O)C1=C(C)n2nc(CC#N)c(C#N)c2NC1c1cc(Br)ccc1O (centres undefined)
IC50 (KB): 6.94 µM | IC50 (HT-29): 5.62 µM | IC50 (HepG2 [4]): 9.64 µM

CSc1nc(-c2ccco2)c2c(N)n[nH]c2n1
selectivity ratio [6]: 18.8 | IC50 (KM12): 1.73 µM

C=CC(=O)N1CCCC(N2NC(c3cc(C(C)(C)O)n(C)n3)c3c(N)ncnc32)C1 (centres undefined)
IC50 [7]: 0.00795 µM | IC50 (Ramos): 8.91 µM | IC50 (Raji): 1.8 µM

Nc1ncnc2c1c(Cc1c[nH]c3ccccc13)nn2CC1CCNCC1
GI50 [8]: 0.019 µM

Cc1nn(-c2ccccc2)c2nc(C)n(Cc3cn(-c4ccc(Cl)cc4)nn3)c(=O)c12
inhibition (INH) (MCF7 [9]): 75.4% | inhibition (INH) (HCT-116 [10]): 75.4%

Cn1nc(C2NN(C3CCCN(C(=O)CC#N)C3)c3ncnc(N)c32)cc1C(C)(C)O (centres undefined)
IC50 [11]: 0.008 µM

C=CC(=O)N1CCC(N2NC(c3cc(C(C)(C)O)n(C)n3)c3c(N)ncnc32)C1 (centres undefined)
IC50 [11]: 0.0072 µM

N#Cc1c(-c2ccccc2)nn2c(-c3cccc4ccccc34)ccnc12
IC50 (MCF7 [12]): 3 µM

Cc1cc(=O)n2nc(CC#N)c(C#N)c2[nH]1
IC50 [13]: 4.05 µM

O=C(NCc1cc(C(F)(F)F)cc(C(F)(F)F)c1)NC1CCN(c2ncnc3[nH]ncc23)CC1
IC50 (JeKo-1): < 1 µM | IC50 [14]: < 1 µM | IC50 (Z-138): < 1 µM

CC1=CC(C)Nc2c(C(=O)Nc3c(C)cccc3C)c(Nc3ccccc3)nn21 (centres undefined)
IC50 (MCF7 [15]): 7.68 µM

Cn1nc(C2NN(C3CCCN(C(=O)CC#N)C3)c3ncnc(N)c32)cc1C=O (centres undefined)
IC50 [11]: 0.0097 µM

Cc1cc(=O)n2nc(/C(C#N)=C\c3ccco3)c(C#N)c2[nH]1
IC50 [13]: 1.91 µM

CSc1nc(-c2cccs2)c2c(N)n[nH]c2n1
selectivity ratio [6]: 35.5 | IC50 (KM12): 1.21 µM

COc1ccc(C2c3c(-c4ccccc4)n[nH]c3Nc3[nH]c(=S)[nH]c(=S)c32)cc1 (centres undefined)
IC50 (HepG2 [16]): 9.2 µM

COc1cc(/C=C(/C#N)c2nn3c(=O)cc(C)[nH]c3c2C#N)ccc1O
IC50 (MCF7 [17]): 1.91 µM | IC50 [13]: 2.31 µM

COc1nc2ccccc2cc1-c1nc2c(cnn2-c2ccc(Br)cc2)c(=O)[nH]1
IC50 (HeLa [2]): 8.72 µM | IC50 [18]: 1.57 µM | IC50 (MCF7 [3]): 6.56 µM | IC50 [19]: 5.83 µM

COc1ccc(-c2c(C#N)cnc3c(C#N)c(-c4ccccc4)nn23)cc1
IC50 (HeLa [20]): 7.8 µM

COc1cccc2c1C(=O)c1c(O)c3c(c(O)c1C2=O)C[C@@](O)(C(=O)CO)C[C@@H]3O[C@H]1C[C@H](N)[C@H](O)[C@H](C)O1 [DOXORUBICIN]
IC50 (HeLa [20]): 8.1 µM | IC50 (MCF7 [12]): 5.9 µM

C#Cc1cccc(Nc2ncnc3cc(OCCOC)c(OCCOC)cc23)c1 [ERLOTINIB]
IC50 (A549): 11.7 µM

O=c1[nH]cc(F)c(=O)[nH]1 [FLUOROURACIL]
selectivity ratio [6]: 1.93 | IC50 (KM12): 12.3 µM
